Laboratory results published in ChEMBL document CHEMBL3045393, “Aryldiones incorporating a [1,4,5]oxadiazepane ring. Part I: Discovery of the novel cereal herbicide pinoxaden” (Bioorg Med Chem, 2009).

Experiments:
Lolium perenne [1] = test: Post-emergence herbicidal activity against Lolium perenne (perennial ryegrass) at 500 g a.i./ha after 21 days; type: functional
Avena fatua [2] = test: Post-emergence herbicidal activity against Avena fatua at 2000 g a.i./ha after 21 days; type: functional
Avena fatua [3] = test: Post-emergence herbicidal activity against Avena fatua at 500 g a.i./ha after 21 days; type: functional
Lolium perenne [4] = test: Post-emergence herbicidal activity against Lolium perenne (perennial ryegrass) at 2000 g a.i./ha after 21 days; type: functional
Setaria faberi [5] = test: Post-emergence herbicidal activity against Setaria faberi (Giant Foxtail) at 2000 g a.i./ha after 21 days; type: functional
Setaria faberi [6] = test: Post-emergence herbicidal activity against Setaria faberi (Giant Foxtail) at 500 g a.i./ha after 21 days; type: functional
Lolium perenne [7] = test: Post-emergence herbicidal activity against Lolium perenne (perennial ryegrass) at 500 g a.i./ha measured after 15 days; type: functional
Avena fatua [8] = test: Post-emergence herbicidal activity against Avena fatua at 500 g a.i./ha measured after 15 days; type: functional
Hordeum vulgare = test: Phytotoxicity against Hordeum vulgare (barley) at 500 g a.i./ha applied post-emergence measured after 15 days; type: organism-based; conditions: in vivo, other, 360 h
Setaria faberi [9] = test: Post-emergence herbicidal activity against Setaria faberi (Giant Foxtail) at 500 g a.i./ha measured after 15 days; type: functional
Alopecurus myosuroides = test: Post-emergence herbicidal activity against Alopecurus myosuroides at 500 g a.i./ha measured after 15 days; type: functional
Triticum aestivum = test: Phytotoxicity against Triticum aestivum (wheat) at 500 g a.i./ha applied post-emergence measured after 15 days; type: organism-based; conditions: in vivo, other, 360 h

Cc1cc(C)c(-c2c(OC(=O)C(C)(C)C)n3n(c2=O)CCS(=O)(=O)CC3)c(C)c1
Activity (Lolium perenne [1]): 10%
Activity (Avena fatua [2]): 80%
Activity (Avena fatua [3]): 20%
Activity (Lolium perenne [4]): 50%
Activity (Setaria faberi [5]): 50%
Activity (Setaria faberi [6]): 10%

Cc1cc(C)c(C2C(=O)N3CC(C)(C)CN3C2=O)c(C)c1
Activity (Lolium perenne [7]): 90%
Activity (Avena fatua [8]): 90%
Activity (Hordeum vulgare): 90%
Activity (Setaria faberi [9]): 90%
Activity (Alopecurus myosuroides): 100%
Activity (Triticum aestivum): 60%

Cc1cc(C)c(C2C(=O)N3CCCN3C2=O)c(C)c1
Activity (Lolium perenne [7]): 80%
Activity (Avena fatua [8]): 20%
Activity (Hordeum vulgare): 40%
Activity (Setaria faberi [9]): 40%
Activity (Alopecurus myosuroides): 40%
Activity (Triticum aestivum): 0%

Cc1cc(C)c(C2C(=O)N3CC(C)C(C)CN3C2=O)c(C)c1 (configuration not stated)
Activity (Lolium perenne [7]): 80%
Activity (Avena fatua [8]): 80%
Activity (Hordeum vulgare): 60%
Activity (Setaria faberi [9]): 60%
Activity (Alopecurus myosuroides): 80%
Activity (Triticum aestivum): 20%

Cc1cc(C)c(C2C(=O)N3CC[S+]([O-])CCN3C2=O)c(C)c1
Activity (Lolium perenne [1]): 40%
Activity (Avena fatua [2]): 80%
Activity (Avena fatua [3]): 40%
Activity (Lolium perenne [4]): 80%
Activity (Setaria faberi [5]): 90%
Activity (Setaria faberi [6]): 60%

Cc1cc(C)c(C2C(=O)N3CCCC(C)N3C2=O)c(C)c1 (configuration not stated)
Activity (Lolium perenne [7]): 90%
Activity (Avena fatua [8]): 90%
Activity (Hordeum vulgare): 80%
Activity (Setaria faberi [9]): 40%
Activity (Alopecurus myosuroides): 40%
Activity (Triticum aestivum): 20%

Cc1cc(C)c(C2C(=O)N3CCS(=O)(=O)CCN3C2=O)c(C)c1
Activity (Lolium perenne [1]): 20%
Activity (Avena fatua [2]): 80%
Activity (Avena fatua [3]): 60%
Activity (Lolium perenne [4]): 60%
Activity (Setaria faberi [5]): 60%
Activity (Setaria faberi [6]): 20%

Cc1cc(C)c(C2C(=O)N(C)N(C)C2=O)c(C)c1
Activity (Lolium perenne [7]): 50%
Activity (Avena fatua [8]): 40%
Activity (Hordeum vulgare): 20%
Activity (Setaria faberi [9]): 80%
Activity (Alopecurus myosuroides): 40%
Activity (Triticum aestivum): 10%

Cc1cc(C)c(C2C(=O)N3C[C@H]4CCCC[C@@H]4CN3C2=O)c(C)c1
Activity (Lolium perenne [7]): 60%
Activity (Avena fatua [8]): 50%
Activity (Hordeum vulgare): 50%
Activity (Setaria faberi [9]): 80%
Activity (Alopecurus myosuroides): 60%
Activity (Triticum aestivum): 50%

Cc1cc(C)c(C2C(=O)N3CCC(C)CCN3C2=O)c(C)c1
Activity (Lolium perenne [7]): 80%
Activity (Avena fatua [8]): 90%
Activity (Hordeum vulgare): 60%
Activity (Setaria faberi [9]): 60%
Activity (Alopecurus myosuroides): 90%
Activity (Triticum aestivum): 20%

Cc1cc(C)c(C2C(=O)N3CC(C)CN3C2=O)c(C)c1
Activity (Lolium perenne [7]): 60%
Activity (Avena fatua [8]): 90%
Activity (Hordeum vulgare): 50%
Activity (Setaria faberi [9]): 50%
Activity (Alopecurus myosuroides): 50%
Activity (Triticum aestivum): 40%

Cc1cc(C)c(C2C(=O)N3C[C@H]4CCCC[C@H]4CN3C2=O)c(C)c1 (some centres not stated)
Activity (Lolium perenne [7]): 90%
Activity (Avena fatua [8]): 80%
Activity (Hordeum vulgare): 60%
Activity (Setaria faberi [9]): 60%
Activity (Alopecurus myosuroides): 60%
Activity (Triticum aestivum): 50%

Cc1cc(C)c(C2C(=O)N3CCN(C)CCN3C2=O)c(C)c1
Activity (Lolium perenne [1]): 10%
Activity (Avena fatua [2]): 10%
Activity (Avena fatua [3]): 0%
Activity (Lolium perenne [4]): 60%
Activity (Setaria faberi [5]): 90%
Activity (Setaria faberi [6]): 40%

Cc1cc(C)c(-c2c(OC(=O)C(C)(C)C)n3n(c2=O)CCCCC3)c(C)c1
Activity (Lolium perenne [1]): 80%
Activity (Avena fatua [2]): 90%
Activity (Avena fatua [3]): 60%
Activity (Lolium perenne [4]): 100%
Activity (Setaria faberi [5]): 90%
Activity (Setaria faberi [6]): 90%

Cc1cc(C)c(-c2c(OC(=O)C(C)(C)C)n3n(c2=O)CCSCC3)c(C)c1
Activity (Lolium perenne [1]): 40%
Activity (Avena fatua [2]): 90%
Activity (Avena fatua [3]): 50%
Activity (Lolium perenne [4]): 80%
Activity (Setaria faberi [5]): 100%
Activity (Setaria faberi [6]): 60%

COC1CN2C(=O)C(c3c(C)cc(C)cc3C)C(=O)N2C1
Activity (Lolium perenne [7]): 20%
Activity (Avena fatua [8]): 20%
Activity (Hordeum vulgare): 0%
Activity (Setaria faberi [9]): 60%
Activity (Alopecurus myosuroides): 20%
Activity (Triticum aestivum): 0%

Cc1cc(C)c(C2C(=O)N3CCC(C)CN3C2=O)c(C)c1 (configuration not stated)
Activity (Lolium perenne [7]): 90%
Activity (Avena fatua [8]): 90%
Activity (Hordeum vulgare): 90%
Activity (Setaria faberi [9]): 50%
Activity (Alopecurus myosuroides): 90%
Activity (Triticum aestivum): 50%
